Measured values taken from patent US12622917B2, “High-activity Wnt pathway inhibitor compound” (ADLAI NORTYE BIOPHARMA CO., LTD., priority 2020, dated 2026).

What was measured:
Format in all cases: cell-based
[1] = system: Colo205-LUC-TCF/LEF M1 reporter cell line (Wnt pathway); test: Colo205-LUC-TCF/LEF M1 reporter gene (luciferase) inhibition; conditions: 4 hours incubation, luciferase readout
Text: Colo205 cell line (Cell Bank of Chinese Academy of Sciences, Cat #TCHu102) was purchased from the Cell Bank of Chinese Academy of Sciences. After expansion and subculture, in the exponential growth phase of the cells, transfection with lipo3000 liposome transfection with TCF/LEF transcription factors Driven luciferase reporter plasmid (Promega). […] The plasmid carries a resistance gene for resistance screening. Transfection was carried out in 10 cm culture dishes using conventional complete medium without resistance. After 2 days, the medium with resistance was replaced, and the culture was continued. After that, the resistant medium was replaced every 2 days, and the suspended cells were discarded. The original medium was centrifuged to remove cells and debris and retained as an adaptive medium. When the cells covered the culture dish, the cells were digested, counted, and passaged in a 96-well plate, so that the average number of cells contained in each well was 1.5/well, and the adaptive medium was used for passage. The rest of the cells were frozen. After subculture, culture for 4 hours to allow the cells to adhere to the wall, and then observe the number of cells in each well under a microscope. Wells with only 1 cell per well were labeled as monoclonal wells. Afterwards, normal culture was performed, and the culture medium was replaced every 2 days, and observed. There are holes where the monoclonal cells continue to grow in the early stage, and they are labeled twice, and can be replaced with normal resistant medium. When a monoclonal well was overgrown with a 96-well plate, it is digested and passaged to a 24-well culture plate. After the 24-well plate is overgrown, it is passaged to a 96-well plate and a 6-well plate. The cells in a 96-well plate are at least 6 wells, of which 3 wells were added with known Wnt inhibitors, and the other 3 wells were not treated. After 24 hours, the cells in the 96-well plate were added with a fluorescence detection reagent to detect the fluorescence intensity. Cell lines with fluorescent expression when not treated and decreased fluorescent light after inhibition were selected and further cultured. The Colo205-LUC-TCF/LEF-M1 cell line is one of the cell lines screened above. Its growth curve, cell shape, and cell growth state are similar to those of the original Colo205 cells, and the ratio of the fluorescent signals of the inhibitor-treated and untreated cells is the largest among all cell lines, and the ratio can reach 4-5 times when inhibited at 4 hours, which was completely suitable for the screening of Wnt inhibitors in the later stage.
The Colo205-LUC-TCF/LEF M1 cell line is a reporter tool cell stably transfected with the pGL4.49-LUC2-TCF/LEF vector. The β-catenin Wnt pathway is continuously activated. After adding the inhibitor, the Wnt pathway is inhibited. The expression of firefly luciferase regulated by the[…] cis-element decreased, and after adding the detection substrate, the detected light signal decreased accordingly, so as to detect the inhibitory effect of the compound.
To a 96-well cell culture plate, add 100 uL of the compound with a maximum concentration of 20 uM to each well, and make a 3-fold serial dilution of the compound concentration. Then 10,000 colo205 cells stably transfected with the reporter gene and 100 uL medium were inoculated into each well, and corresponding positive and negative control wells were made at the same time. Put the cells in a 5% CO2 incubator and incubate at 37° C. for 4 hours. After 4 hours, remove the culture medium, add 100 uL of reagent (Promega) containing the corresponding firefly luciferase substrate to each well, and measure the activity of luciferase reporter gene. Luminescence intensity was read with SpectraMax in full wavelength mode. […]

RKO = test: Proliferation inhibition, non-Wnt mutant control cell line RKO; conditions: Homo sapiens, Wnt-independent control cell line, 96 hours, read-out: Antiproliferative IC50 RKO
Text: (§1) The cell lines used in the experiment are Colo205 and DU4475 cell lines whose Wnt pathway is continuously activated and whose proliferation is Wnt pathway-dependent; while the BELA and RKO cell lines, whose Wnt pathway is not activated under normal circumstances and the proliferation is independent of Wnt pathway, as control cell lines. It is Judged that the inhibitory effect of the compound of the present invention on Wnt-dependent proliferation is not caused by other non-specific toxicity.
(§2) Treat the Colo205, Du4475, HELA and RKO cell lines cultured in their respective mediums in the logarithmic growth phase, collect the cells and prepare a uniform cell suspension of known concentration, and then add it to the 96-well cell culture plate Cell suspension, so that each well contains 1000 cells. Put it into a 5% CO2 incubator and incubate at 37° C. for 20-24 h. On the second day, the fully dissolved, 3-fold serially diluted compound was added to each cell culture well, so that the final maximum concentration in the cell culture well was 20 uM, and the culture was continued for 96 hours. In this test, Promega's cell viability detection test is used for detection. The more the cells proliferate, the stronger the final signal intensity will be. The detection instrument is SpectraMax, full wavelength mode. The wells only added with DMSO were used as positive control wells, and the wells that were not inoculated with cells were used as negative control wells. […] The IC50 value of cell proliferation inhibition was used to evaluate the inhibitory effect of the compound on the Wnt pathway and the toxic effect on normal cells (Table 2).

Colo205 = test: Proliferation inhibition, Wnt mutant cell line Colo205; conditions: Homo sapiens, COLO 205; Colo205, Wnt pathway-dependent, 96 hours; read-out: Antiproliferative IC50 Colo205
Text: as §1, §2

IC50 [1] [µM]	IC50 (Colo205) [µM]	Compound	IC50 (RKO) [µM]
0.041	–	C[C@H]1Cn2cc(F)c3nc(NCc4cnn(Cc5ccc(F)cc5)c4)nc(c32)N1C [64 (W23)]	–
0.011	–	C[C@H]1Cn2ccc3nc(NCc4cnn(CCc5ccc(F)cc5)c4)nc(c32)N1C [66 (W43)]	–
0.021	–	FC1(F)C[C@H]2Cn3ccc4nc(NCc5cnn(Cc6ccc(C(F)(F)F)nc6)c5)nc(c43)N2C1 [69 (W50)]	–
0.024	–	[2H]C([2H])([2H])N1c2nc(NCc3cnn(Cc4ccc(C(F)(F)F)nc4)c3)nc3ccn(c23)C[C@@H]1C [73 (W85)]	–
0.067	–	CN1CC2(CC2)Cn2ccc3nc(NCc4cnn(Cc5ccc(C(F)(F)F)nc5)c4)nc1c32 [76 (W83)]	–
0.042	0.025	[2H]C([2H])([2H])OC[C@H]1C(=O)N2CCCc3nc(NCc4ccc(Oc5cnc(C(F)(F)F)nc5)nc4)nc(c32)N1C([2H])([2H])[2H] [132 (W383), (S)-5-((methoxy-d3)methyl)-4-(methyl-d3)-2-(((6-((2-(trifluoromethyl)pyrimidin-5-yl)oxo)pyridin-3-yl)methyl)amino)-4,5,9,10-tetrahydro-6H,8H-pyrido[3,2,1-de]pteridin-6-one]	> 10
0.058	0.035	CN1c2nc(NCc3ccc(Oc4ccc(C(F)(F)F)nc4)nc3)nc3c2N(CCC3)C(=O)[C@]1(C)CO [133 (W377), (S)-5-(hydroxymethyl)-4,5-dimethyl-2-(((6-((6-(trifluoromethyl)pyridin-3-yl)oxo)pyridine-3-yl)methyl)amino)-4,5,9,10-tetrahydro-6H,8H-pyrido[3,2,1-de]pteridin-6-one]	> 10
–	0.138	C[C@H]1C(=O)N2CCCc3nc(NCc4ccc(Oc5ccc(C6CC6)nc5)nc4)nc(c32)N1C [137 (W335), (S)-2-(((6-((6-cyclopropylpyridin-3-yl)oxo)pyridin-3-yl)methyl)amino)-4,5-dimethyl-4,5,9,10-tetrahydro-6H,8H-pyrido[3,2,1-de]pteridin-6-one]	> 10
–	0.049	CN1c2nc(NCc3ccc(Oc4cnc(C(F)(F)F)nc4)nc3)nc3c2N(CCC3)C(=O)[C@]1(C)CO [140 (W376), (S)-5-(hydroxymethyl)-4,5-dimethyl-2-(((6-((2-(trifluoromethyl)pyrimidin-5-yl)oxo)pyridine-3-Base)methyl)amino)-4,5,9,10-tetrahydro-6H,8H-pyrido[3,2,1-de]pteridin-6-one]	> 10
0.077	0.088	CCOC[C@H]1C(=O)N2CCCc3nc(NCc4ccc(Oc5cnc(C(F)(F)F)nc5)nc4)nc(c32)N1C [155 (W347)]	> 10
0.028	–	CN1c2nc(NCc3ccc(Oc4cnc(C(F)(F)F)nc4)nc3)nc3c2N(CCC3)C(=O)C12CC2 [175 (W327)]	–
–	0.084	CN1c2nc(NCc3ccc(Oc4ccc(C(F)(F)F)nc4)nc3)nc3c2N(CCC3)C(=O)C12CCOC2 (stereo not drawn) [207 (W357)]	> 10
–	0.03	CN1c2nc(NCc3ccc(Oc4ccc(C(F)(F)F)nc4)nc3)nc3c2N(CCC3)C(=O)[C@]12CCOC2 [209 (W405)]	> 10
–	0.06	COCCC1C(=O)N2CCCc3nc(NCc4ccc(Oc5cnc(C(F)(F)F)nc5)nc4)nc(c32)N1C (stereo not drawn) [210 (W371)]	> 10
0.043	0.023	COCC[C@H]1C(=O)N2CCCc3nc(NCc4ccc(Oc5cnc(C(F)(F)F)nc5)nc4)nc(c32)N1C [211 (W390)]	> 10
0.069	0.053	COCCC1C(=O)N2CCCc3nc(NCc4ccc(Oc5ccc(C(F)(F)F)nc5)nc4)nc(c32)N1C (stereo not drawn) [213 (W355)]	> 10

IC50 [1] [µM]	IC50 (Colo205) [µM]	Compound	IC50 (RKO) [µM]
–	0.053	COCC[C@@H]1C(=O)N2CCCc3nc(NCc4ccc(Oc5ccc(C(F)(F)F)nc5)nc4)nc(c32)N1C [215 (W391)]	> 10
–	0.039	CN1c2nc(NCc3ccc(Oc4ccc(C(F)(F)F)nc4)nc3)nc3c2N(CCC3)C(=O)C12CCOCC2 [216 (W352)]	> 10
–	0.057	CN1c2nc(NCc3ccc(Oc4cnc(C(F)(F)F)nc4)nc3)nc3c2N(CCC3)C(=O)C12CCOCC2 [217 (W359)]	> 10
0.03	0.017	CN1c2nc(NCc3ccc(Oc4cnc(C(F)(F)F)nc4)nc3)nc3c2N(CCC3)C(=O)[C@@H]1C1CCOCC1 [218 (W339)]	> 10
0.031	0.01	CN1c2nc(NCc3ccc(Oc4ccc(C(F)(F)F)nc4)nc3)nc3c2N(CCC3)C(=O)[C@@H]1C1CCOCC1 [219 (W338)]	> 10
–	0.048	[2H]C([2H])([2H])N1c2nc(NCc3ccc(Oc4ccc(C(F)(F)F)nc4)nc3)nc3c2N(CCC3)C(=O)[C@]1(C)CO [220 (W398)]	> 10
–	0.043	[2H]C([2H])([2H])N1c2nc(NCc3ccc(Oc4cnc(C(F)(F)F)nc4)nc3)nc3c2N(CCC3)C(=O)[C@]1(C)CO [221 (W399)]	> 10
–	0.061	CN1c2nc(NCc3ccc(Oc4cc(C(F)(F)F)nn4C)nc3)nc3c2N(CCC3)C(=O)[C@@H]1CO [222 (W402)]	> 10
0.059	0.035	CN1c2nc(NCc3ccc(Oc4cc(C(F)(F)F)nn4C)nc3)nc3c2N(CCC3)C(=O)[C@]1(C)CO [223 (W403)]	> 10
–	0.063	CN1c2nc(NCc3ccc(Oc4cnc(C(F)(F)F)nc4)nc3)nc3c2N(CCC3)C(=O)[C@@]12CCOC2 [224 (W406)]	> 10
–	0.057	CN1c2nc(NCc3ccc(Oc4cnc(C(F)(F)F)nc4)nc3)nc3c2N(CCC3)C(=O)[C@]12CCOC2 [225 (W407)]	> 10
–	0.052	CCn1nc(C(F)(F)F)c(C2CC2)c1Oc1ccc(CNc2nc3c4c(n2)N(C)[C@@](C)(CO)C(=O)N4CCC3)cn1 [233 (W419)]	> 10
0.036	0.0283	C[C@H](O)[C@@]1(C)C(=O)N2CCCc3nc(NCc4ccc(Oc5ccc(C(F)(F)F)nc5)nc4)nc(c32)N1C [239 (W427)]	> 10
0.083	–	C[C@H]1C(=O)N2CCCc3nc(NCc4cnn(Cc5ccc(C(F)(F)F)nc5)c4)nc(c32)N1C [Example 1, (S)-4,5-dimethyl-2-(((1-((6-(trifluoromethyl)pyridine-3-yl)methyl)-1H-pyrazol-4-yl)methyl)amino)-4,5,9,10-tetrahydro-6H,8H-pyrido[3,2,1-de]pteridin-6-one]	–
0.093	–	C[C@H]1CN(C)c2nc(NCc3ccc(CCC(F)(F)F)nc3)nc3ccn1c23 [Example 20, (S)-4,6-dimethyl-N-((6-(3,3,3-trifluoropropyl)pyridin-3-yl)methyl)-5,6-dihydro-4H-pyrrole And[3,2,1-de]pteridin-2-amine]	–
